Where “and” joins values, the source holds several entries; their conditions need not be identical. Equal values may be shown once. Where a name gives a salt, the structure may show the parent alone. Read-outs that look alike come from different tables or passages of the source.

From publication PMC7473772 (eLife, 2020) come the findings set out here.

The target of the experiment is TbAQP2/HAPT1 (Trypanosoma brucei brucei, UniProt Q6ZXT3). The experiment in a line: cell-based. It counts as cell-based.
Sequence of TbAQP2/HAPT1 (Q6ZXT3 whole entry): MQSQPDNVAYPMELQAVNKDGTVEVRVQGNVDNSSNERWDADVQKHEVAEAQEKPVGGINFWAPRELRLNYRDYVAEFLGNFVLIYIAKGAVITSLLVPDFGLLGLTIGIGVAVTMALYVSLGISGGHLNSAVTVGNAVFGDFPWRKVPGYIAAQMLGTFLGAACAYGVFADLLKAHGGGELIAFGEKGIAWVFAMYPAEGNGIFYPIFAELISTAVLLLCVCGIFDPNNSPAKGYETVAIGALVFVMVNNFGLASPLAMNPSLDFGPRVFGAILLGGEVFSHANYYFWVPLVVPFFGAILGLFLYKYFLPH
The mark [1] stands for this setting: Gibbs free energy of binding to HAPT.
Setting [2] is: NI/NE with the concentration tested, read-out: HAPT Ki, AVG.

As to `N=C(N)c1ccc(O)cc1` [4-hydroxybenzamidine], the ΔG0 is on record as -14.5 kJ/mol and the “δ(ΔG^0) PMD” value came out at 28.1 kJ/mol. Affinity (HAPT Ki, AVG) was put at a Ki of 2890 µM. In addition, for the setting “Ki”, the affinity corresponds to a Ki of 2900 µM.

In the case of `N=C(N)c1ccc(OCCCCOc2ccc(C(=N)N)cc2)cc1` [Butamidine, 4,4’-(Butane-l ,4-diylbis(oxy))dibenzimiamide dihydrochloride dihydrate], the ΔG0 was -30.9 kJ/mol and the “δ(ΔG^0) PMD” value was 11.7 kJ/mol. Where the note is “Ki”, this molecule returned an inhibitory constant (Ki) of 3.87 ± 1.38 µM.

For the molecule `Cl.N=C(N)c1ccc(OCCCCOc2ccccc2)cc1.O` [CHI/1/69/1, 4-(4-Phenoxybutoxy)benzimidamide hydrochloride hydrate], the ΔG0 is reported as -32.2 kJ/mol and the “δ(ΔG^0) PMD” value is 10.4 kJ/mol. Under “Ki”, the Ki is 2.33 µM and 2.3 µM.

For `CON1CCN=C1Nc1ccc(CCc2ccc(NC3=NCCN3OC)cc2)cc1` [CRMI8], the ΔG0 is -24.4 kJ/mol and the “δ(ΔG^0) PMD” value worked out at 18.1 kJ/mol. The same molecule yielded an inhibition constant Ki (Ki) of 52.8 ± 12.7 µM.

Take `N=C(N)c1ccc(OCCCOc2ccc(C(=N)N)cc2)cc1` [Chainlength 3]: the affinity (Ki value, Mean), expressed as Ki, was 7.2 µM.

For the setting “Ki value, Mean”, `N=C(N)c1ccc(OCCCCOc2ccc(C(=N)N)cc2)cc1` [Chainlength 4] displayed a Ki of 3.91 µM.

`N=C(N)c1ccc(OCCCCCOc2ccc(C(=N)N)cc2)cc1` [Chainlength 5]: the affinity (Ki value, Mean) corresponds to a Ki of 0.0364 µM.

In turn, `N=C(N)c1ccc(OCCCCCCOc2ccc(C(=N)N)cc2)cc1` [Chainlength 6] gave an inhibition constant Ki (Ki value, Mean) of 0.059 µM.

`N=C(N)c1ccc(OCCCCCCCOc2ccc(C(=N)N)cc2)cc1` [Chainlength 7] came in with an inhibition constant Ki (Ki value, Mean) of 0.125 µM.

Regarding `N=C(N)c1ccc(OCCCCCCCCOc2ccc(C(=N)N)cc2)cc1` [Chainlength 8], under “Ki value, Mean”, affinity was put at a Ki of 2.2 µM.

As to `N=C(N)c1ccc(-c2cc3ccc(C(=N)N)cc3[nH]2)cc1` [DAPI], the ΔG0 is -26.1 kJ/mol and the “δ(ΔG0)” value is recorded as 16.4 kJ/mol. Besides, the inhibition constant (Ki) (read-out: HAPT Ki, AVG) was 26.4 µM.

Turning to `Cn1c(-c2ccc(C(=N)N)cc2)ccc1-c1ccc(C(=N)N)cc1` [DB320], the ΔG0 was -23.7 kJ/mol and the “δ(ΔG^0) PMD” value amounted to 18.9 kJ/mol. Where the note is “Ki”, this molecule came in with a Ki of 71.3 ± 12.1 µM.

Turning to `COc1ccc(-c2ccc(-c3ccc(C(=N)N)cc3)o2)cc1` [DB607, 4-(5-(4-methoxyphenyl)furan-2-yl) benzimidamide hydrochloride], the ΔG0 is -27.1 kJ/mol and the “δ(ΔG^0) PMD” value is 15.5 kJ/mol. The same molecule came in with a Ki (Ki) of 18.1 ± 1.9 µM.

As to `N=C(N)Nc1ccc(-c2ccc(-c3ccc(NC(=N)N)cc3)s2)cc1` [DB686], the ΔG0 is given as -37.3 kJ/mol and the “δ(ΔG^0) PMD” value stood at 5.2 kJ/mol. This molecule had a Ki (Ki) of 0.29 ± 0.11 µM.

`N=C(N)c1ccc(-c2ccc(-c3ccc(C(=N)N)cn3)o2)cc1` [DB820]: under setting [1], the ΔG0 is -24.9 kJ/mol. Further, the Ki under setting [2] is 43.4 µM. Moreover, for the setting “relative to pentamidine (0)”, the “δ(ΔG0)” value is given as 17.7 kJ/mol.

As to `N=C(N)c1ccc(-c2ccc(-c3ccc(C(=N)N)cn3)o2)nc1` [DB829], the ΔG0 was -25.1 kJ/mol and the “δ(ΔG^0) PMD” value is 17.4 kJ/mol. The molecule also returned an inhibition constant Ki (Ki) of 39.9 ± 8 µM.

As for `N=C(N)c1ccc(-c2ccc(-c3ccc(-c4ccc(C(=N)N)cc4)o3)o2)cc1` [DB914], the ΔG0 is -40.7 kJ/mol and the “δ(ΔG^0) PMD” value turned out to be 1.8 kJ/mol. Moreover, under “Ki”, the Ki was 0.073 ± 0.013 µM.

On to `Cn1c(-c2ccc(-c3ccc(C(=N)N)cc3)o2)nc2ccccc21` [DB960, 4-(5-(1-methyl-1H-benzo[d]imidazol-2-yl)furan-2-yl) benzimidamide dihydrochloride], for which the ΔG0 is -27.3 kJ/mol and the “δ(ΔG^0) PMD” value worked out at 15.3 kJ/mol. Under “Ki”, this molecule showed an inhibition constant (Ki) of 16.6 ± 3.5 µM.

In the case of `N=C(N)c1ccc(-c2ccc(-c3ccc(C(=N)N)nc3)o2)cn1` [DB994], the ΔG0 is recorded as -21.6 kJ/mol and the “δ(ΔG^0) PMD” value is recorded as 21.0 kJ/mol. For the setting “Ki”, this molecule had a Ki of 167 ± 20 µM.

For `N=C(N)CCc1ccc(-c2ccc(-c3ccc(CCC(=N)N)cc3)o2)cc1` [DB1061, 3,3'-(furan-2,5-diylbis (4,1-phenylene)) dipropanimidamide dihydrochloride], the ΔG0 was -25.6 kJ/mol and the “δ(ΔG^0) PMD” value amounted to 16.9 kJ/mol. The molecule further returned an inhibition constant Ki (Ki) of 32.3 ± 6 µM.

For `Cl.Cl.c1cc(-c2ccc(-c3ccc(CCC4=NCCN4)cc3)o2)ccc1CCC1=NCCN1` [DB1062, 2,5-bis(4-(2-(4,5-dihydro-1H-imidazol-2-yl)ethyl)phenyl) furan dihydrochloride], the ΔG0 is given as -24.1 kJ/mol and the “δ(ΔG^0) PMD” value is 18.4 kJ/mol. This molecule registered an inhibition constant Ki (Ki) of 59.6 ± 11.2 µM.

`N=C(N)CCc1ccc(-c2ccc(-c3ccc(CCC(=N)N)cc3)s2)cc1` [DB1063, 3,3'-(thiophene-2,5-diylbis(4,1-phenylene)) dipropanimidamide dihydrochloride]: the ΔG0 is -36.5 kJ/mol and the “δ(ΔG^0) PMD” value was 6.0 kJ/mol. The same molecule yielded an inhibition constant (Ki) (Ki) of 0.4 ± 0.1 µM.

On to `N=C(N)c1ccc(-c2csc(-c3ccc(C(=N)N)cc3)c2)cc1` [DB1077, 4,4'-(thiophene-2,4-diyl) dibenzimidamide dihydrochloride], for which the ΔG0 is on record as -27.7 kJ/mol and the “δ(ΔG^0) PMD” value was 14.8 kJ/mol. The same molecule returned a Ki (Ki) of 13.8 ± 3.1 µM.

On to `N=C(N)c1ccc(OCCOCCOc2ccc(C(=N)N)cc2)cc1` [DB1699], for which the ΔG0 is -27.3 kJ/mol and the “δ(ΔG^0) PMD” value amounted to 15.3 kJ/mol. Where the note is “Ki”, this molecule had a Ki of 16.6 ± 2.1 µM.

Consider `N=C(N)c1ccc(-c2csc(-c3ccc(C(=N)N)cc3)n2)cc1` [ER1004, 4,4'-(thiazole-2,4-diyl)dibenzimidamide], for which the ΔG0 is reported as -23.8 kJ/mol and the “δ(ΔG^0) PMD” value was 18.8 kJ/mol. Under “Ki”, this molecule had a Ki of 68.7 ± 16 µM.

For the molecule `Cl.Cl.N=C(N)c1ccc(OCCOc2ccc(C(=N)N)cc2)cc1.O.O` [Ethamidine, 4,4'-(ethane-1,2-diylbis(oxy))dibenzimidamide dihydrochloride dihydrate], the “δ(ΔG0)” value was above 19.7 kJ/mol and the “δ(ΔG^0) PMD” value was above 19.7 kJ/mol. The inhibitory constant (Ki) (Ki) is above 100 µM.

For the molecule `c1cc(NC2=NCCN2)ccc1CCc1ccc(NC2=NCCN2)cc1` [FR39], the ΔG0 was -25.0 kJ/mol and the “δ(ΔG^0) PMD” value worked out at 17.6 kJ/mol. For the same molecule, for the setting “Ki”, affinity was put at a Ki of 41.7 ± 15.2 µM.

On to `N=C(N)c1ccc(OCCCCCCCOc2ccc(C(=N)N)cc2)cc1` [Heptamidine], for which the ΔG0 is on record as -39.4 kJ/mol and the “δ(ΔG^0) PMD” value amounted to 3.1 kJ/mol. This molecule yielded an inhibitory constant (Ki) (Ki) of 0.123 ± 0.01 µM.

`N=C(N)c1ccc(OCCCCCCOc2ccc(C(=N)N)cc2)cc1` [Hexamidine]: the ΔG0 is recorded as -41.3 kJ/mol and the “δ(ΔG^0) PMD” value came out at 1.3 kJ/mol. This molecule yielded an inhibitory constant (Ki) (Ki) of 0.058 ± 0.011 µM.

For `N=C(N)c1cccc(OCCCCCOc2cccc(C(=N)N)c2)c1` [Meta-pentamidine RT40], the ΔG0 is reported as -23.9 kJ/mol and the “δ(ΔG0)” value came to 18.6 kJ/mol. The Ki (HAPT Ki, AVG) was 64.2 µM.

In the case of `N=C(N)c1ccc(OCCCCCCCCOc2ccc(C(=N)N)cc2)cc1` [Octamidine], the ΔG0 is reported as -32.3 kJ/mol and the “δ(ΔG^0) PMD” value was 10.2 kJ/mol. Moreover, the inhibition constant (Ki) (Ki) was 2.16 ± 0.48 µM.

In the case of `O=C(CCc1ccc(O)cc1)c1c(O)cc(O)cc1O` [Phloretin], the ΔG0 is recorded as -32.8 kJ/mol and the “δ(ΔG0)” value was 9.7 kJ/mol. This molecule showed a Ki (Ki) of 1.76 µM.

Take `Cl.Cl.N=C(N)c1ccc(OCCCOc2ccc(C(=N)N)cc2)cc1.O.O` [Propamidine, 4,4’-(propane-1,3-diylbis(oxy))dibenzimidamide dihydrochloride dihydrate]: the ΔG0 is given as -29.6 kJ/mol and the “δ(ΔG^0) PMD” value was found to be 13.0 kJ/mol. Under “Ki”, the inhibition constant (Ki) was 6.63 ± 1.4 µM.

`N=C(N)c1ccc(OCCCOc2ccc(C(=O)O)cc2)cc1` [RT-38]: the “HAPT Ki, AVG” value is “NI, 100” and the “δ(ΔG^0) PMD” value is listed as above 19.7 kJ/mol. The inhibition constant (Ki) (Ki) is above 100 µM.

For `N=C(N)c1ccc(OCCCCCOc2ccc(C(=N)N)cc2C(N)=O)c(C(N)=O)c1` [RT-46], the inhibition constant Ki entry is “no affinity at all” and the “δ(ΔG^0) PMD” value is above 19.7 kJ/mol. For the setting “Ki”, this molecule had an inhibition constant Ki above 100 µM.

Take `N=C(N)c1ccc(S(=O)(=O)CCCCCS(=O)(=O)c2ccc(C(=N)N)cc2)cc1` [RT-49]: the Ki result was “no binding affinity”, the “δ(ΔG0)” value is above 20.7 kJ/mol and the “δ(ΔG^0) PMD” value is listed as above 20.7 kJ/mol. The inhibition constant (Ki) (Ki) was above 150 µM.

For `N=C(N)c1ccc(OCCCCCOc2ccc(C(=N)N)nc2)cn1` [RT-53], the “HAPT Ki, AVG” value is reported as “NI, 250”; the inhibition constant (Ki) result was “completely inactive”; the “δ(ΔG0)” value is on record as above 22 kJ/mol; the “δ(ΔG^0) PMD” value was above 22 kJ/mol. Under “Ki”, this molecule had a Ki above 250 µM.

In the case of `N=C(N)c1ccc(/C=C/c2ccc(C(=N)N)cc2)cc1` [Stilbamidine], the ΔG0 is on record as -24.3 kJ/mol and the “δ(ΔG^0) PMD” value is listed as 18.3 kJ/mol. Further, the Ki (HAPT Ki, AVG) is 54.8 µM. Besides, under “Ki”, the inhibition constant Ki was found to be 54.8 ± 3.2 µM.

As for `N=C(N)NCCCCCCCCCCN=C(N)N.O=S(=O)(O)O` [Synthalin sulphate], the ΔG0 under setting [1] is given as -20.4 kJ/mol. The inhibition constant Ki under setting [2] is 270 µM. In addition, the “δ(ΔG0)” value (relative to pentamidine (0)) came out at 22.2 kJ/mol.

Consider `COc1cc(/C=C/C(=O)CC(=O)/C=C/c2ccc(O)c(OC)c2)ccc1O` [curcumin], for which the Ki entry is listed as “failed to inhibit”, the ΔG0 is -19.4 kJ/mol and the “δ(ΔG0)” value was 23.2 kJ/mol. The molecule further yielded an inhibition constant Ki (HAPT Ki, AVG) of 398 µM.

Turning to `Cn1c([N+](=O)[O-])cnc1-c1nnc(N)s1` [megazol], the “HAPT Ki, AVG” value is reported as “NE, 250” and the Ki entry is “failed to inhibit”.

In the case of `O=c1ccc2[n+]([O-])c3ccc(O)cc3oc-2c1` [resazurin], the ΔG0 is given as -21.7 kJ/mol and the “δ(ΔG0)” value is given as 20.8 kJ/mol. Also, the inhibition constant (Ki) (HAPT Ki, AVG) worked out at 155 µM.
